In US5342970A, “Hydrosoluble coumarin derivatives, their preparation and their use as an enzyme substrate or for the preparation of such substrates” (priority 1991, dated 1994):
“And” between values parts separate entries of the source, which are not always exact repeats. Equal entries are not always repeated. Structures can show the parent of a compound that is named as a salt. Where two headings read alike, the source gives them in different places. Each block holds one molecule with its values, some of them ahead of it.

Key:
[1] = Solubility in water and in water-ethanol mixtures; type: physicochemical; conditions: water; read-out: Solubility in water
[2] = Excitation and emission spectra of substrates and hydrolysis products (Table 1); type: physicochemical
[3] = Ratio of fluorescence intensities of hydrolysis product and substrate; type: physicochemical; conditions: equimolar concentration, at the measurement wavelength
Leucine aminopeptidase [4] = conditions: known substrates, for comparison; medium with organic solvent; cited from earlier work
Leucine aminopeptidase [5] = conditions: comparison substrate Leu-AMC; cited from earlier work
Leucine aminopeptidase [6] = test: Enzymatic hydrolysis of substrate by leucine aminopeptidase, Michaelis kinetics; type: biochemical
Method: As a result of the possible presence in the substrate Leu ATC (compound 13) of a trace of ATC, i.e. 7-amino-4-(2',5',8'-trioxanonyl)-coumarin, which is the hydrolysis product, use was made of a kinetic method for determining the enzymatic activity of leucine aminopeptidase, i.e. the signal is constituted by the fluorescence intensity difference at 2 minutes and 12 minutes. In this way it is possible to eliminate the interference of the ATC present prior to hydrolysis.
The initial speed of the reaction was studied for a concentration of the substrate constituted by compound 13 (Leu-ATC) between 2×10^-5 mole/l and […] using the following reagents:
Crystalline Leu-ATC hydrochloride of example 13: aqueous solutions 4×10^-5 to 4×10^-3 mole/l,
Leucine aminopeptidase (Sigma, ref N5006): aqueous solution at 7.53 μg/ml in 0.2M Tris buffer, pH7.8,
Tris buffer: solution A: 0.2M Tris, i.e. 24.23 g/l, solution B: 0.1M HCl.
This buffer is prepared by mixing 25 ml of solution A and 33.7 ml of solution B and by topping up to 100 ml with water. The pH must be 7.8.
1.17N perchloric acid solution (1/10 dilution of the pure acid).
For this determination, preparation firstly takes place in tubes of the following range of substrate concentrations (compound 13, Leu-ATC): 0-2-4-10-20-50-100-200×10^-5 M (final concentration).
To each tube is added a concentration of 1.51 μg/ml of Leucine aminopeptidase, everything being dissolved in the Tris buffer at pH 7.8, preheated to 37° C., whilst the tubes are in a water bath thermostatically controlled to 37° C. After 2 min, 250 μl are removed from each tube and poured into tubes containing 250 μl of perchloric solution and 750 μl of water. The same operation is repeated after 6 min. All the tubes are diluted to 1/1000. The intensity of the fluorescence IF is measured at 370/480 nm. The difference of the intensities at 6 and 2 min: […] constitutes the signal.
The corresponding ATC concentration is calculated relative to a calibration range between 10^-9 and 10^-8 M. The results are given in the following table 2:
The speed constant kcat is calculated by the ratio Vm/Ez, in which Vm is the maximum speed in μmole/s/mg/Ez and Ez is the enzyme quantity in 1 mg, expressed in μmole. The molar mass of Leucine aminopeptidase is 300000.
This curve has a hyperbolic behaviour characteristic of a Michaelis kinetics. The experimental points were adjusted to the corresponding equation by non-linear regression (Graphpad software) and made it possible to determine the affinity constant Km, the maximum speed Vm and the speed constant kcat (ratio of the maximum speed to the enzyme concentration).

Leucine aminopeptidase [7] = test: Determination of leucine aminopeptidase, analytical characteristics of the reaction; type: biochemical
Method: The reaction conditions were determined following the preceding stage. The Leu-ATC substrate concentration was chosen to give a maximum speed (1 mM). The reaction time was made 12 minutes by measuring the difference of the fluorescence intensities at 12 and 2 minutes. In order to evaluate the quantification limit, measure the repeatability and test the linearity, […] were prepared containing concentrations of 0-0.05-0.10-0.25-0.50-1 μg/ml using the same reagents as previously and giving the following range:
In order to carry out the evaluation, a series of tubes was prepared containing 750 μl of water+250 μl of 1.17N perchloric solution and at time 2 min, transfer thereto took place of 250 μl of each sample of the enzyme range. The same took place at time 12 min. This was followed by the dilution of all the tubes to 1/200 in water and the reading of the fluorescence (370/480 nm) with a gain of 2 on the Perkin Elmer LS3B fluorimeter.
The results obtained are given in FIG. 25, with which is the mean calibration curve illustrating the variation of the fluorescence intensity as a function of the enzyme concentration (μg/ml). This calibration curve was determined by linear regression. The mean standard deviation is 153±7.36 for the gradient and -3.10±1.16 for the intercept.
The quantification limit, calculated by the ratio […], is 0.02 μg/ml.
The repeatability, evaluated by the variation coefficient, is 17% at 0.05 μg/ml, 8% at 0.25 μg/ml and 4% at 1 μg/ml.

[8] = Excitation and emission spectra of ATC derivatives (Table 4); type: physicochemical; conditions: 10^-7 M; Z-Arg-ATC in 50 mM Tris pH 8, 10 mM CaCl2
Method: The excitation and emission spectra of ATC and Z-Arg-ATC were plotted on the basis of 10^-7 M solutions in the 50 mM Tris buffer at pH 8 containing 10 mM of CaCl2. The maxima obtained are indicated in table 4 with the corresponding maxima of Leu-ATC.

[9] = substrate: COCCOCCOCc1cc(=O)oc2cc(NC(=O)[C@H](CCCNC(=N)N)NC(=O)OCc3ccccc3)ccc12; test: Hydrolysis of substrate by trypsin, Michaelis kinetics; type: biochemical, pig; conditions: other: Tris buffer pH 8.0 + CaCl2 10 mM, ambient temperature
Method: Crystalline Z-Arg-ATC hydrochloride (Seratec): 10^-3 M solution in Tris buffer, pH 8.0+CACl2, 10 mM.
Pig pancreas trypsin (SIGMA T0134): 10^-3 M solution in Tris buffer, pH 8.0+CACl2, 10 mM.
Tris buffer: solution A: 0.2M Tris, i.e. 24.23 g/l+CaCl2, 40 mM, i.e. 5.88 g/l; solution B: 0.1M HCl.
This buffer is prepared by mixing 250 ml of solution A with 268 ml of solution B and by topping up to 1 liter with water.
Acetate buffer: solution A: 0.02M acetic acid; solution B: 0.02M sodium acetate.
This buffer is prepared by mixing volume by volume solutions A and B to obtain a buffer at pH 4.75.
Aqueous 1.17N perchloric acid solution (1/10 dilution of pure acid).
The following substrate concentration range was prepared in tubes: 0-0.2-0.5-1-2-5-10×10^-4 M (final concentration).
To each tube was added a concentration of 6.67 μg/ml of trypsin, everything being dissolved in the Tris buffer pH 8.0+CaCl2, 10 mM and at ambient temperature. The enzyme is added at time 0. After 2 minutes, 250 μl are removed from each tube and poured into tubes containing 250 μl of 1.17N perchloric acid and 500 μl of water. The tubes are centrifuged and then the solution is diluted to 1/250 in the acetate buffer. The same operation is repeated at 17 min. The fluorescence intensity is measured at 380/490nm. The difference of the intensities at 17 and 2 min constitutes the signal.
The corresponding ATC concentration is calculated compared with a calibration range from 5×10^-9 to 2×10^-7 M.
This was followed by the determination of Km, Vm, kcat and the ratio kcat/Km. The results obtained are given in table 6, which also gives for comparison purposes the values obtained with Z-L-Arg-AMC and Bz DL Arg-AMC and Bz -L-Arg-AMC.

[10] = Tris buffer pH 7.8, 37° C., no organic solvent
[11] = words, vs Leu AMC and Leu-βnaphthylamide
[12] = fluorescence intensity vs enzyme concentration (μg/ml), linear regression

Molecule: Cc1cc(=O)oc2cc(NC(=O)[C@@H](N)CC(C)C)ccc12 [Leu AMC]
Maximum excitation wavelength, substrate ([2]; 10^-7 M in Tris buffer, pH 7.8): 327 nm | Maximum fluorescence wavelength, substrate ([2]; 10^-7 M in Tris buffer, pH 7.8): 390 nm | Km (Leucine aminopeptidase [4]): 160 µM | Vm (Leucine aminopeptidase [4]): 4.0 μmole/mg Ez/min | detection limit (Leucine aminopeptidase [5]): 0.03 µg/mL

Molecule: COCCOCCOCc1cc(=O)oc2cc(NC(=O)[C@@H](N)CC(C)C)ccc12 [Compound 13, L-leucine-4-(2',5',8'-trioxanonyl)-7-coumarinylamide hydrochloride]
Maximum excitation wavelength, substrate ([2]; 10^-7 M in Tris buffer, pH 7.8): 330 nm | Maximum fluorescence wavelength, substrate ([2]; 10^-7 M in Tris buffer, pH 7.8): 405 nm | Stokes displacement compared with AMC and AMCS derivatives ([2]; words): greater | ATC concentration in hydrolysis solution (Leucine aminopeptidase [6]; Leu-ATC 2×10^-5 M): 1.7 µM/min | ATC concentration in working solution (Leucine aminopeptidase [6]; Leu-ATC 2×10^-5 M): 1.38 nM | IF(6)-IF(2) (Leucine aminopeptidase [6]; Leu-ATC 2×10^-5 M): 5.5 | ATC concentration in hydrolysis solution (Leucine aminopeptidase [6]; Leu-ATC 4×10^-5 M): 3.6 µM/min | ATC concentration in working solution (Leucine aminopeptidase [6]; Leu-ATC 4×10^-5 M): 2.88 nM | IF(6)-IF(2) (Leucine aminopeptidase [6]; Leu-ATC 4×10^-5 M): 11.5 | ATC concentration in hydrolysis solution (Leucine aminopeptidase [6]; Leu-ATC 10×10^-5 M): 6.6 µM/min | ATC concentration in working solution (Leucine aminopeptidase [6]; Leu-ATC 10×10^-5 M): 5.25 nM | IF(6)-IF(2) (Leucine aminopeptidase [6]; Leu-ATC 10×10^-5 M): 21 | ATC concentration in hydrolysis solution (Leucine aminopeptidase [6]; Leu-ATC 20×10^-5 M): 12.0 µM/min | ATC concentration in working solution (Leucine aminopeptidase [6]; Leu-ATC 20×10^-5 M): 9.63 nM | IF(6)-IF(2) (Leucine aminopeptidase [6]; Leu-ATC 20×10^-5 M): 38.5 | ATC concentration in hydrolysis solution (Leucine aminopeptidase [6]; Leu-ATC 50×10^-5 M): 14.1 µM/min | ATC concentration in working solution (Leucine aminopeptidase [6]; Leu-ATC 50×10^-5 M): 11.25 nM | IF(6)-IF(2) (Leucine aminopeptidase [6]; Leu-ATC 50×10^-5 M): 45 | ATC concentration in hydrolysis solution (Leucine aminopeptidase [6]; Leu-ATC 100×10^-5 M): 14.7 µM/min | ATC concentration in working solution (Leucine aminopeptidase [6]; Leu-ATC 100×10^-5 M): 11.75 nM | IF(6)-IF(2) (Leucine aminopeptidase [6]; Leu-ATC 100×10^-5 M): 47 | ATC concentration in hydrolysis solution (Leucine aminopeptidase [6]; Leu-ATC 200×10^-5 M): 15.0 µM/min | ATC concentration in working solution (Leucine aminopeptidase [6]; Leu-ATC 200×10^-5 M): 12.0 nM | IF(6)-IF(2) (Leucine aminopeptidase [6]; Leu-ATC 200×10^-5 M): 48 | Km (Leucine aminopeptidase [6]; [10]): 110 µM | Vm (Leucine aminopeptidase [6]; [10]): 10.3 μmole/mg Ez/min | kcat (Leucine aminopeptidase [6]; ratio Vm/Ez, pH 7.8, 37° C.): 51.5 s⁻¹ | affinity for Leucine aminopeptidase compared with the other substrates (Leucine aminopeptidase [6]; [11]): better than that of the two other substrates | maximum speed compared with the other substrates (Leucine aminopeptidase [6]; [11]): higher | repeatability (variation coefficient) (Leucine aminopeptidase [7]; at 0.05 μg/ml enzyme): 17% | repeatability (variation coefficient) (Leucine aminopeptidase [7]; at 0.25 μg/ml enzyme): 8% | repeatability (variation coefficient) (Leucine aminopeptidase [7]; at 1 μg/ml enzyme): 4% | gradient of calibration curve (Leucine aminopeptidase [7]; [12]): 153±7.36 | intercept of calibration curve (Leucine aminopeptidase [7]; [12]): -3.10±1.16 | quantification limit (Leucine aminopeptidase [7]; leucine aminopeptidase, ratio 3 b/a, substrate 1 mM, 12 min): 0.02 µg/mL | excitation maximum, substrate [8]: 330 nm | fluorescence maximum, substrate [8]: 405 nm

B1: Pig pancreas trypsin (Sus scrofa) (protein)
chain: IVGGYTCAANSIPYQVSLNSGSHFCGGSLINSQWVVSAAHCYKSRIQVRLGEHNIDVLEGNEQFINAAKIITHPNFNGNTLDNDIMLIKLSSPATLNSRVATVSLPRSCAAAGTECLISGWGNTKSSGSSYPSLLQCLKAPVLSDSSCKSSYPGQITGNMICVGFLEGGKDSCQGDSGGPVVCNGQLQGIVSWGYGCAQKNKPGVYTKVCNYVNWIQQTIAAN
Km [9]: 195 µM | Vmax [9]: 3.16 µM/min | kcat/Km [9]: 975 M⁻¹ s⁻¹

Further lines, results first:

solubility [1]: 400 µg/mL and 1330 µM | Maximum excitation wavelength, hydrolysis product ([2]; 10^-7 M in Tris buffer, pH 7.8): 350 nm | Maximum fluorescence wavelength, hydrolysis product ([2]; 10^-7 M in Tris buffer, pH 7.8): 465 nm | ratio of the fluorescence intensities of the hydrolysis product and the substrate [3]: approximately 400
Molecule: COCCOCCOCc1cc(=O)oc2cc(N)ccc12 [Compound 4, 7-amino-4-(2',5',8'-trioxanonyl)coumarin]

ratio of the fluorescence intensities of the hydrolysis product and the substrate [3]: ~250
Molecule: Nc1ccc2c(CS(=O)(=O)O)cc(=O)oc2c1 [AMCS, 7-amino-4-coumarinyl-methane sulphonic acid, reference compound]
